Test results as given in patent US20220295793A1 (priority 2019, published 2022).
Where two headings read alike, the source gives them in different places.

How the values were obtained:
Phytophthora infestans = type: in vivo; details: tomatoes, preventive spray, evaluated 3 days after inoculation
cucumber downy mildew = details: R. Zhang, J. Pesticide Sci., vol. 39, no. 1, 2014, pages 43-47; cited from earlier work

Compound	Efficacy in % found (Phytophthora infestans; 0.02 ppm a.i.)	Efficacy in % found (Phytophthora infestans; 0.04 ppm a.i.)	Efficacy in % found (Phytophthora infestans; 2.5 ppm a.i.)	Efficacy in % found (Phytophthora infestans; 5 ppm a.i.)	Efficacy in % found (Phytophthora infestans; 10 ppm a.i.)	controlling cucumber downy mildew (cucumber downy mildew)
CS(=O)(=O)Oc1cccc(Cl)c1C1CC(c2csc(C3CCN(C(=O)Cn4nc(C(F)F)cc4C(F)F)CC3)n2)=NO1 (racemic) [(A) fluoxapiprolin, 2-{(5RS)-3-[2-(1-{[3,5-bis(difluoromethyl)-1H-pyrazol-1-yl]acetyl}-4-piperidyl)thiazol-4-yl]-4,5-dihydroisoxazol-5-yl}-3-chlorophenyl methanesulfonate]	54%	79%	–	–	–	–
COc1c(F)c(F)c(C(=O)NCc2ncc(C(F)(F)F)cc2Cl)c(F)c1F [(B) fluopimomide, N-{[3-chloro-5-(trifluoromethyl)-2-pyridyl]methyl}-2,3,5,6-tetrafluoro-4-methoxybenzamide]	–	–	0%	0%	0%	highly effective
